Experimental data as given in patent US20210253747A1, “COMPOSITIONS OF SOLUBLE BETA GLUCAN AND RELATED METHODS” (KEMIN INDUSTRIES, INC., priority 2020, published 2021).

Design: Initial absorbance (@600 nm): dose or concentration left out as unconfirmed
Description: The final criteria for the claimed composition is the ability for the dry product to redissolve into a soluble/colloidal water-based solution at an example concentration of 10 g/L. Before redissolving in water, the dry product is ground into a powder using any mechanical grinding/milling/pulverizing methods, in this case a mortar and pestle.

Substance: paramylon [Sample A]
- Absorbance at 60 min/Initial absorbance: 0.535
- Initial absorbance (@600 nm): 1.950
- Solubility as defined by the absorbance method (soluble if the decrease is not more than 25% after 60 minutes): NOT SOLUBLE
